One block for each molecule: values may come before it.
Legend:
[1] = Protocol: The solubility of the organic carboxylic acid strontium salts, were measured in water. The solubility of these salts was also measured as a function of temperature. This was performed by incubating the saturated solutions of the salts in temperature controlled incubators.
The buffered solutions were immersed into a bath of water temperature controlled at either room temperature (22-24° C.), at 30° C. or at 40° C. […] In order to eliminate any reminiscent strontium chloride influence on the determination of solubility, all the precipitate was collected at the bottom of the test tubes and the solutions above the precipitate were carefully removed and substituted by fresh solutions. […] From these solutions, the dissolved proportions of the strontium salt were collected in volumes of 1 mL at the specified temperature. The solutions were diluted to 50 mL before analysis by Flame Atomic Absorption Spectrometry (F-AAS).
Two methods were used for quantification of strontium in solutions: Flame Atomic Absorption Spectrometry (F-AAS), and the more sensitive inductively-coupled-plasma-mass spectrometry (ICP-MS).
The solubilities were investigated as described above, and strontium content in the saturated solutions determined as described here below.
Some of the very soluble strontium salts were further diluted before analysis by F-AAS. The measurements were performed by using a Perkin-Elmer 2100 equipped with a hydrogen lamp for correction of the background signal. Strontium was measured at a slit with of 0.2 nm, the wavelength was 460.8 nm operated at an energy of 58 and a current of 8 mA.
This analysis was performed using a Perkin Elmer Elan 5000 system equipped with a cross-flow nebulizer. The power was set at 1000 W and the Argon-gas flow was 12 L/min and 0.8 L/min of the torch and plasma gas, respectively.

[2] = values quoted in scientific literature or reference material such as the Beilstein compendium; cited from earlier work
[3] = target: T1, calcium-sensing receptor (CaR) (Homo sapiens, UniProt P41180); conditions: cited from earlier work
T1 sequence (P41180 20-1078): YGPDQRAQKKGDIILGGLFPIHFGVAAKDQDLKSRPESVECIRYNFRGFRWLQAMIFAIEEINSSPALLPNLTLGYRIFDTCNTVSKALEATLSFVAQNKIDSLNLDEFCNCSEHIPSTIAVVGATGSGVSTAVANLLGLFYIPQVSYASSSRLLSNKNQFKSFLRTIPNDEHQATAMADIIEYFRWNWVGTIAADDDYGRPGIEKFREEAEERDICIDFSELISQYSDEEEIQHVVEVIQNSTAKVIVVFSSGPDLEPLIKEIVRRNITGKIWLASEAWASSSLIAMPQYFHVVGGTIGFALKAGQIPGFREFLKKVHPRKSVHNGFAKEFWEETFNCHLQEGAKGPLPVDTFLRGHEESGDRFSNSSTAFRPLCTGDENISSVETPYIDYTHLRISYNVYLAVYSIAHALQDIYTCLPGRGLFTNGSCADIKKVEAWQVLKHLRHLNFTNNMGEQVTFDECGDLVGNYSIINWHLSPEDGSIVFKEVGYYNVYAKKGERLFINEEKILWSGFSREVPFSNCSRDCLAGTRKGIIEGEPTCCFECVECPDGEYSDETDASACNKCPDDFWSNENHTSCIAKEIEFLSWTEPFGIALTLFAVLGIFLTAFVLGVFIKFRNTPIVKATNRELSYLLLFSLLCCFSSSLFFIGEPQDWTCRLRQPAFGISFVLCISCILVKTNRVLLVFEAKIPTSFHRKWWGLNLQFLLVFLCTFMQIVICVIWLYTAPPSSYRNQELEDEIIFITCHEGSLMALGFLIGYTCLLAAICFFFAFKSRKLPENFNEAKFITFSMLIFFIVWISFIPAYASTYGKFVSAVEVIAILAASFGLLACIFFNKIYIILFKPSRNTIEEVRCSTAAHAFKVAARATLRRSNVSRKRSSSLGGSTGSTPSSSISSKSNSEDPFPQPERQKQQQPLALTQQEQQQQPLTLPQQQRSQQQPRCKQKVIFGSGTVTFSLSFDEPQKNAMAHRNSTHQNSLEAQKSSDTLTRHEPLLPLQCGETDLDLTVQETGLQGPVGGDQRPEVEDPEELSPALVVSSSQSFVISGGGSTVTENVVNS

SMILES: O=C([O-])/C=C\C(=O)[O-].[Sr+2] [Maleate, strontium maleate]
- solubility in ammonium carbonate buffered solution of pH 7.5 compared with pure water ([1]; pH 7.5): decreased solubility

- SOLUBILITY AT 40° C. (mg/L) In water [1]: 1450 mg/L
- SOLUBILITY AT ROOM TEMPERATURE (22-24° C. mg/L) In water [1]: 760 mg/L
- SOLUBILITY AT 40° C. (mg/L) pH 7.5 ([1]; pH 7.5): 1970 mg/L
- SOLUBILITY AT ROOM TEMPERATURE (22-24° C. mg/L) pH 7.5 ([1]; pH 7.5): 890 mg/L
SMILES: N#Cc1c(N(CC(=O)[O-])CC(=O)[O-])sc(C(=O)[O-])c1CC(=O)[O-].[Sr+2].[Sr+2] [Ranelate, distrontium salt of 2-[N,N-di(carboxymethyl)amino]-3-cyano-4-carboxymethylthiophene-5-carboxylic acid]

SMILES: [Cl-].[Cl-].[Sr+2] [SrCl2, strontium chloride]
- Solubility, Measured g/L ([1]; commercially available strontium salts, in water at room temperature (22-24)): 240 g/L
- Solubility, Expected value 18° C. [2]: 538 mg/mL

SMILES: [Sr+2] [strontium]
- activity at the calcium-sensing receptor (CaR) [3]: full agonist

Source: patent US20060275503A1, “Combination treatment with strontium for the prophylaxis and/or treatment of cartilage and/or bone conditions” (Nordic Bone A/S, priority 2003, published 2006)
